Among the data in US20250320213A1, “Nitrogen-Containing Heterocyclic Compounds” (Pfizer Inc., priority 2024, published 2025) are EC50 and IC50 values, retold here.

One assay concerns the target T1, STAT6 (Homo sapiens, UniProt P42226).
T1 construct: stably transfected HaCaT keratinocyte cell line, which expresses NanoLuc luciferase reporter gene under the transcriptional control of the STAT6 responsive promoter; endogenous in cells; host or cells: HaCaT keratinocyte reporter cell line (stably transfected with a NanoLuc reporter)
T1 sequence (P42226 1-847): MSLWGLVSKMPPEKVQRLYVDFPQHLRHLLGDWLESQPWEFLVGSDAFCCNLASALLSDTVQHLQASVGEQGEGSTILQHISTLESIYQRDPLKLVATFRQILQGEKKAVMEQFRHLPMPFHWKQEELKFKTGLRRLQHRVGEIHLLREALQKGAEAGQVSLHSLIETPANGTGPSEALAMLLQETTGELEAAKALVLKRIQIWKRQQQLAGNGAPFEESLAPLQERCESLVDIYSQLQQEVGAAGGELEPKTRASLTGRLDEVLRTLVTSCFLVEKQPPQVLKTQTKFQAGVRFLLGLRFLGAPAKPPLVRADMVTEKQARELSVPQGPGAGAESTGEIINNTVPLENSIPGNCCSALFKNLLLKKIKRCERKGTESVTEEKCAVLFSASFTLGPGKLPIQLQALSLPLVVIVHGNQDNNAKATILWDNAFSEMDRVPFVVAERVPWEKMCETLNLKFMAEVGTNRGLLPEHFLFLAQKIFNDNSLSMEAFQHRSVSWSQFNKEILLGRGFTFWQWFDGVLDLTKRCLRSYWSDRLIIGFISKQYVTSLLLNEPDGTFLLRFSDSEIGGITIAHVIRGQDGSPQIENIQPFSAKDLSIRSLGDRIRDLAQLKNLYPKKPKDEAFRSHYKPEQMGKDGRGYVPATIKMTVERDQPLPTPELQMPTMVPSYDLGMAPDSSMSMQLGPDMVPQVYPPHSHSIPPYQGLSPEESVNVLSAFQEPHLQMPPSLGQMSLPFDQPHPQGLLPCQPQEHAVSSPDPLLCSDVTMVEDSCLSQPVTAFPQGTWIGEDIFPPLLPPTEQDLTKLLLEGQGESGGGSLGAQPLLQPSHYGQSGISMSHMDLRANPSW
Nature of the assay: STAT6 Reporter Luciferase Assay (IL-13 stimulated HaCaT keratinocyte NanoLuc reporter cells). It counts as cell-based. The following applies: read-out: Reporter EC50. A digest of the protocol:
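Compounds were tested as 11-point, 4-fold series in duplicate, applied for 2 h at 37 °C in low-serum (2% FBS) DMEM. The cells were a stable HaCaT line with NanoLuc under a STAT6-responsive IL-13Ra2 promoter. After 4 h with 0.12 nM IL-13, Nano-Glo luminescence was measured.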

The test system of assay [1] is CCL17 secretion in peripheral human whole blood. Nature of the assay: Human Whole Blood (HWB) CCL17 TR-FRET Assay (IL-13 stimulated CCL17 secretion). It counts as cell-based. A digest of the protocol:
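Heparin-anticoagulated human blood; cpd 11-pt 3-fold dilution, duplicate, 2 h 37 °C preinc; IL-13 10 ng/mL final, 48 h 37 °C; spin, serum CCL17 by TR-FRET ELISA, 16 h RT, 665/615 ratio; IC50.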

Setting [2] is: STAT6 NanoLuc luciferase reporter, IL-13 stimulated HaCaT keratinocyte cells.
Setting [3] is: Homo sapiens, 48 h, inhibition of CCL17 secretion in human whole blood, 10 ng/mL IL13, 48 hours.
Where [4] appears, read: IL-13 stimulated HaCaT STAT6 NanoLuc reporter cells.
Setting [5] is: Homo sapiens, 48 h, human whole blood, IL-13 stimulated.

Each structure is given as a SMILES string. Where two headings read alike, the source gives them in different places.

Turning to `CN(C)C(=O)Nc1ccc(CNC(=O)c2nn(C)c3c2CN(c2ccc(C(=O)N(C)C)cn2)CC3(C)C)cc1` [Example 105, 5-(5-(dimethylcarbamoyl)pyridin-2-yl)-N-(4-(3,3-dimethylureido)benzyl)-1,7,7-trimethyl-4,5,6,7-tetrahydro-1H-pyrazolo[4,3-c]pyridine-3-carboxamide], the concentration for a half-maximal effect (EC50) at STAT6 (setting [2]) came out at 3 nM. Further, half-maximal inhibition in assay [1] (setting [3]) (IC50) was put at 21 nM.

For the compound `CCn1nc(C(=O)NCc2ccc(C(N)=O)cc2)c2c1[C@@H](C)CN(c1ccc(N3CCCC3=O)cn1)C2` [Example 389, (S)-N-(4-carbamoylbenzyl)-1-ethyl-7-methyl-5-(5-(2-oxopyrrolidin-1-yl)pyridin-2-yl)-4,5,6,7-tetrahydro-1H-pyrazolo[4,3-c]pyridine-3-carboxamide], at STAT6 (setting [4]), the concentration for a half-maximal effect (EC50) was 6 nM. In assay [1] (setting [5]), this compound showed a concentration for half-maximal inhibition (IC50) of 17 nM.

On to `CC(C)n1nc(C(=O)NCc2ccc(-c3ncc[nH]3)cc2)c2c1C[C@H](C)N(c1ncc(C(=O)N(C)C)cn1)C2` [Example 451, (S)-N-(4-(1H-imidazol-2-yl)benzyl)-5-(5-(dimethylcarbamoyl)pyrimidin-2-yl)-1-isopropyl-6-methyl-4,5,6,7-tetrahydro-1H-pyrazolo[4,3-c]pyridine-3-carboxamide], for which the EC50 at STAT6 (setting [4]) amounted to 3 nM. In assay [1] (setting [5]), this compound had an IC50 of 47 nM.

On to `CCn1nc(C(=O)NCc2ccc(NC(=O)N(C)C)cc2)c2c1[C@@H](C)CN(c1ncc(C(=O)N(C)C)cn1)C2` [Example 125, (S)-5-(5-(Dimethylcarbamoyl)pyrimidin-2-yl)-N-(4-(3,3-dimethylureido)benzyl)-1-ethyl-7-methyl-4,5,6,7-tetrahydro-1H-pyrazolo[4,3-c]pyridine-3-carboxamide], for which the EC50 at STAT6 (setting [2]) worked out at 1 nM. The compound further showed a concentration for half-maximal inhibition (IC50) in assay [1] (setting [3]) of 4 nM.

For the compound `CN(C)C(=O)Nc1ccc(CNC(=O)c2nn(C)c3c2[C@H]2CC[C@@H](C3)N2c2ccc(C(=O)N(C)C)cn2)cc1` (racemic) [Example 86, rac-(4R,7S)-9-(5-(dimethylcarbamoyl)pyridin-2-yl)-N-(4-(3,3-dimethylureido)benzyl)-1-methyl-1,4,5,6,7,8-hexahydro-4,7-epiminocyclohepta[c]pyrazole-3-carboxamide], the 50% effective concentration (EC50) on STAT6 (setting [2]) was over 10000 nM. Moreover, the half-maximal inhibitory concentration (IC50) in assay [1] (setting [3]) was over 30000 nM.

Turning to `CN(C)C(=O)Nc1ccc(CNC(=O)c2nn(C)c3c2[C@H]2CCC[C@@H](C3)N2c2ccc(C(=O)N(C)C)cn2)cc1` (single isomer, unassigned) [Example 274], at STAT6 (setting [4]), the 50% effective concentration (EC50) was found to be 695 nM. Besides, 4770 nM corresponded to half-maximal inhibition in assay [1] (setting [5]) (IC50).

`CCC1Cc2c(c(C(=O)NCc3ccc(NC(=O)N(C)C)cc3)nn2CC)CN1c1ccc(C(=O)N(C)C)cn1` (single isomer, unassigned) [Example 117, rel-(R or S)-5-(5-(dimethylcarbamoyl)pyridin-2-yl)-N-(4-(3,3-dimethylureido)benzyl)-1,6-diethyl-4,5,6,7-tetrahydro-1H-pyrazolo[4,3-c]pyridine-3-carboxamide]: the EC50 at STAT6 (setting [2]) is 3 nM. Moreover, the concentration for half-maximal inhibition (IC50) in assay [1] (inhibition of CCL17 secretion in human whole blood, 10 ng/mL IL13, 48 hours) came out at 13 nM.

On to `CC[C@H]1c2c(C(=O)NCc3ccc(NC(=O)N(C)C)cc3)nn(C(C)C)c2CCN1c1ccc(C(=O)N(C)C)cn1` (single isomer, unassigned) [Example 528], for which, at STAT6 (setting [4]), the EC50 is 17 nM. Moreover, in assay [1] (human whole blood, 10 ng/mL IL13, 48 hours), the IC50 was found to be 67 nM.

For `CC(C)n1nc(C(=O)NCc2ccc(NC(=O)N(C)C)cc2)c2c1C(C(F)(F)F)CN(c1ncc(C(=O)N(C)C)cn1)C2` (racemic) [Example 459, rac-(R)-5-(5-(dimethylcarbamoyl)pyrimidin-2-yl)-N-(4-(3,3-dimethylureido)benzyl)-1-isopropyl-7-(trifluoromethyl)-4,5,6,7-tetrahydro-1H-pyrazolo[4,3-c]pyridine-3-carboxamide], at STAT6 (setting [4]), the EC50 is 0.3 nM. Also, the half-inhibitory concentration (IC50) in assay [1] (setting [5]) was determined as 2 nM.
